Source: patent US9066965B1, “Purified limonin glucoside for prevention and treatment of chronic diseases” (The United States of America, as represented by the …, priority 2012, dated 2015)

Columns and labels:
[1] = Serum lipids and lipoproteins; assay type: in vivo, human
Text: Serum lipids were part of the CMP performed at University of California Medical Center (UCDMC) by using the Beckman Coulter DxC800 instrument. Lipoproteins A1 and B were ascertained in EDTA plasma using a Cobas Integra 400 Plus instrument with Roche reagents (Roche Diagnostics Corp., Indianapolis, Ind.). Lipoproteins C2, C3 and E were quantified in serum using a Cobas Integra 400 Plus instrument with Kamiya reagents (Kamiya Biomedical Co., Seattle, Wash.).
(§1) Results are presented as means±SEM.

[2] = Rules Based Medicine human multi-analyte panel (MAP 1.6), plasma; assay type: in vivo; set-up: Epidermal growth factor: unit not given here
Method: (§2) Plasma samples prepared from blood collected in EDTA-containing tubes were stored at −80° C. until tested. The samples were thawed at room temperature, vortexed, spun at 13,000×g for 5 minutes for clarification and 100 uL aliquots were removed for MAP analysis into a master microtiter plate. Using automated pipetting, an aliquot of each sample was introduced into one of the capture microsphere multiplexes of the Human MAP 1.6. This MAP comprised of 89 antigens that included markers for oxidative stress, inflammation, immune status, T2DM, CVD, blood clotting, cancer, liver and kidney functions. All plasma samples were tested in duplicate. The mixture of sample and capture microspheres were thoroughly mixed and incubated at room temperature for 1 hour. Multiplexed cocktails of biotinylated, reporter antibodies for each multiplex were then added robotically and after thorough mixing, were incubated for an additional hour at room temperature. Multiplexes were developed using an excess of streptavidin-phycoerythrin solution which was thoroughly mixed into each multiplex and incubated for 1 hour at room temperature. The volume of each multiplexed reaction was reduced by vacuum filtration and the volume increased by dilution into matrix buffer for analysis. Analysis was performed in a Luminex 100 instrument and the resulting data stream was interpreted using proprietary data analysis software developed at Rules-Based Medicine. For each multiplex, both calibrators and controls were included on each microtiter plate. 8-point calibrators were run in the first and last column of each plate and 3-level controls were included in duplicate. Testing results were determined first for the high, medium and low controls for each multiplex to ensure proper assay performance. Unknown values for each of the analytes localized in a specific multiplex were determined using 4 and 5 parameter, weighted and non-weighted curve fitting algorithms included in the data analysis package. The intra-sample coefficient of variance (CV) for all antigens with concentrations above the lowest detectable dose (LDD) was less than 20%, and was less than 10% for more than 50% of the antigens tested.
as §1

[3] = tested on: prostate specific antigen (PSA); experiment: Plasma free prostate specific antigen in MAP 1.6; assay type: in vivo, human; conditions: for decrease of plasma free PSA concentration: vs placebo, n=5
Method: as §2, §1

[4] = Complete blood cell count (hematological parameters); assay type: in vivo, human; set-up: Monocytes / Eosinophil / Basophils / Platelets / WBC / Neutrophils / Lymphocytes: unit not given here
Method: Complete and differential cell counts were performed at the hematology laboratory of University of California Medical Center (UCDMC), Sacramento using Beckman Coulter LH 700.
as §1

[5] = End LG, 500 mg/d, 56 days, n = 10, mean ± SEM
[6] = serum, End LG, 500 mg/d, 56 days, n = 10, mean ± SEM

## CC1(C)O[C@H]2CC(=O)OC[C@]23[C@H]2CC[C@@](C)([C@@H](O[C@@H]4O[C@H](CO)[C@@H](O)[C@H](O)[C@H]4O)c4ccoc4)[C@@]4(O[C@@H]4C(=O)O)[C@]2(C)C(=O)C[C@@H]13 [LG, limonin glucoside]
[1]; [5]
  Lipoprotein A1: 142.91 ± 4.18 mg/dL
  Lipoprotein B: 114.5 ± 6.45 mg/dL
  Lipoprotein C2: 6.21 ± 0.50 mg/dL
  Lipoprotein C3: 13.28 ± 1.05 mg/dL
  Lipoprotein E: 4.91 ± 0.32 mg/dL
[1]; Table 4
  change in plasma concentrations of Apo B: did not find any change
[1]; [6]
  Cholesterol: 231.70 ± 8.83 mg/dL
  HDL-C: 44.20 ± 2.59 mg/dL
  LDL-C (Calc): 159.10 ± 7.37 mg/dL
  Non-HDL-C: 187.50 ± 10.63 mg/dL
  Total-C:HDL-C: 5.47 ± 0.47
  Triglycerides: 142.60 ± 23.64 mg/dL
[1]; vs end of placebo treatment
  effect on serum total-, HDL-, LDL-, non-HDL-cholesterol, triglycerides, lipoproteins A1, B, C2, C3, E: did not alter
[2]; [5]
  Adiponectin: 3.19 ± 0.70 µg/mL
  Alpha-1 Antitrypsin: 2.19 ± 0.10 mg/mL
  Alpha-2 Macroglobulin: 0.79 ± 0.06 mg/mL
  Alpha-Fetoprotein: 2.35 ± 0.19 ng/mL
  Apolipoprotein A1: 0.30 ± 0.01 mg/mL
  Apolipoprotein CIII: 111.60 ± 12.92 µg/mL
  Apolipoprotein H: 257.10 ± 19.26 µg/mL
  Apolipoprotein a: 110.78 ± 57.76 µg/mL
  Beta-2 Microglobulin: 1.46 ± 0.14 µg/mL
  Brain-Derived Neurotrophic Factor: 2.88 ± 0.71 ng/mL
  C Reactive Protein: 1.77 ± 0.26 µg/mL
  CD 40: 0.76 ± 0.06 ng/mL
  CD 40 Ligand: 0.74 ± 0.27 ng/mL
  Carcinoembryonic Antigen: 1.49 ± 0.36 ng/mL
  Creatine Kinase-MB: 0.30 ± 0.07 ng/mL
  EN-RAGE: 3.45 ± 0.99 ng/mL
  Eotaxin-1: 71.37 ± 14.78 pg/mL
  Epidermal growth factor: 251.67 ± 48.22
  Epithelial derived-neutrophil-activating protein: 1.68 ± 0.41 ng/mL
  Factor VII: 548.70 ± 64.71 ng/mL
  Ferritin: 137.76 ± 59.13 ng/mL
  Fibrinogen: 4.81 ± 0.29 mg/mL
  Fibroblast growth factor-basic: 102.81 ± 19.33 pg/mL
  Glutathione S-Transferase: 0.56 ± 0.02 ng/mL
  Granulocyte colony-stimulating factor: 5.63 ± 1.12 pg/mL
  Growth hormone: 1.71 ± 0.79 ng/mL
  Haptoglobin: 1.26 ± 0.18 mg/mL
  ICAM-1: 105.01 ± 13.81 ng/mL
  Immunoglobulin A: 2.14 ± 0.54 mg/mL
  Immunoglobulin E: 28.89 ± 6.20 ng/mL
  Immunoglobulin M: 1.85 ± 0.23 mg/mL
  Insulin: 2.94 ± 0.53 μIU/mL
  Interleukin-1 beta: 0.50 ± 0.14 pg/mL
  Interleukin-1 receptor antagonist: 105.05 ± 14.03 pg/mL
  Interleukin-3: 0.05 ± 0.01 ng/mL
  Interleukin-4: 62.87 ± 8.35 pg/mL
  Interleukin-5: 3.80 ± 0.77 pg/mL
  Interleukin-7: 51.27 ± 7.39 pg/mL
  Interleukin-8: 11.26 ± 1.25 pg/mL
  Interleukin-10: 10.92 ± 2.07 pg/mL
  Interleukin-12p 70: 59.91 ± 2.15 pg/mL
  Interleukin-13: 59.52 ± 6.77 pg/mL
  Interleukin-15: 0.45 ± 0.09 ng/mL
  Interleukin-16: 404.90 ± 32.28 pg/mL
  Interleukin-18: 237.45 ± 24.67 pg/mL
  Leptin: 15.00 ± 4.12 ng/mL
  Macrophage inflammatory protein-1α: 106.76 ± 12.39 pg/mL
  Macrophage inflammatory protein-1β: 183.58 ± 36.53 pg/mL
  Matrix metalloproteinase-2: 2.20 ± 156.40 µg/mL
  Monocyte chemotactic protein-1: 164.84 ± 16.25 pg/mL
  Monocyte derived chemokine: 426.10 ± 40.45 pg/mL
  Myeloperoxidase: 147.83 ± 22.42 ng/mL
  Myoglobin: 14.94 ± 2.39 ng/mL
  Plasminogen activator inhibitor-1: 69.86 ± 15.86 ng/mL
  Pregnancy associated plasma protein A: 0.02 ± 0.00 mIU/mL
  Prostatic Acid Phosphatase: 0.17 ± 0.02 ng/mL
  Serum amyloid P-component: 16.61 ± 0.94 µg/mL
  Serum glutamic oxaloacetic transaminase: 9.67 ± 1.64 µg/mL
  Sex hormone binding globulin: 33.29 ± 5.40 nmol/L
  Stem Cell Factor: 351.05 ± 50.76 pg/mL
  T-cell specific protein, RANTES: 16.48 ± 3.62 ng/mL
  Thrombopoietin: 1.40 ± 0.22 ng/mL
  Thyroid Stimulating Hormone: 1.72 ± 0.30 μIU/mL
  Thyroxine Binding Globulin: 46.51 ± 2.84 µg/mL
  Tissue factor: 0.45 ± 0.03 ng/mL
  Tissue inhibitor of metalloproteinases-1: 87.97 ± 8.38 ng/mL
  Tumor necrosis factor receptor-like 2: 3.83 ± 0.25 ng/mL
  Tumor necrosis factor α: 3.58 ± 0.68 pg/mL
  Vascular cell adhesion molecule-1: 508.80 ± 49.79 ng/mL
  Vascular endothelial growth factor: 883.55 ± 268.15 pg/mL
  Von Willebrand Factor: 30.03 ± 3.09 µg/mL
[2]; not significant
  tumor necrosis factor α (p=0.085), matrix metalloproteinase-9 (p=0.118), serum amyloid P (p=0.188) with supplementation: trends for decrease
[2]; second line so named (r60), End LG, 500 mg/d, 56 days, n = 10, mean ± SEM
  Matrix metalloproteinase-2: 0.07601 ± 0.02246 µg/mL
[3]; 5 men, 5 women
  subjects in whom free PSA concentration was reduced: all men and 3 women
[3]; plasma, MAP 1.6, End LG, 500 mg/d, 56 days, n = 10, mean ± SEM
  Prostate-Specific Antigen, Free: 0.31 ± 0.11 ng/mL
[3]; men, p=0.059
  decrease of plasma free PSA concentration: 14.5%
[3]; women, p=0.309
  decrease of plasma free PSA concentration: 22.9%
[4]; [5]
  Basophils: 0.03 ± 0.00
  Basophils, % of WBC: 0.47 ± 0.04 % of WBC
  Eosinophil: 0.18 ± 0.03
  Eosinophil, % of WBC: 3.32 ± 0.52 % of WBC
  Hematocrit: 41.47 ± 1.00%
  Hemoglobin: 13.94 ± 0.61 g/dL
  Lymphocytes: 1.80 ± 0.14
  Lymphocytes, % of WBC: 33.01 ± 2.09 % of WBC
  MCH: 31.08 ± 0.39 pico grams
  MCHC: 33.98 ± 0.16%
  MCV: 91.44 ± 1.29 microns
  Monocytes: 0.42 ± 0.03
  Monocytes, % of WBC: 7.79 ± 1.03 % of WBC
  Neutrophils: 3.14 ± 0.30
  Neutrophils, % of WBC: 55.41 ± 3.16 % of WBC
  Platelets: 229.00 ± 12.74
  RBC: 4.54 ± 0.13 × 10^−12/L
  RDW: 13.12 ± 0.13%
  WBC: 5.55 ± 0.38
  pH: 6.75 ± 0.27
[4]; vs end of placebo treatment, baseline as covariate
  effect on hematological variables: did not alter
